# Experimental data from patent publication US20250002489A1, “BIFUNCTIONAL COMPOUNDS FOR DEGRADING ITK VIA UBIQUITIN PROTEOSOME PATHWAY” (NURIX THERAPEUTICS, INC., priority 2021, published 2025).
# Target: T1, ITK (Jurkat or Molt4 cells) (Homo sapiens, UniProt Q08881)
# T1 construct: either human Jurkat (Clone E6-1 ATCC TIB-152) or Motl4 (ATCC CRL-1552), were plated; endogenous in cells; host or cells: Jurkat Clone E6-1 (ATCC TIB-152) or Molt4 (ATCC CRL-1552)
# T1 sequence (Q08881 1-620): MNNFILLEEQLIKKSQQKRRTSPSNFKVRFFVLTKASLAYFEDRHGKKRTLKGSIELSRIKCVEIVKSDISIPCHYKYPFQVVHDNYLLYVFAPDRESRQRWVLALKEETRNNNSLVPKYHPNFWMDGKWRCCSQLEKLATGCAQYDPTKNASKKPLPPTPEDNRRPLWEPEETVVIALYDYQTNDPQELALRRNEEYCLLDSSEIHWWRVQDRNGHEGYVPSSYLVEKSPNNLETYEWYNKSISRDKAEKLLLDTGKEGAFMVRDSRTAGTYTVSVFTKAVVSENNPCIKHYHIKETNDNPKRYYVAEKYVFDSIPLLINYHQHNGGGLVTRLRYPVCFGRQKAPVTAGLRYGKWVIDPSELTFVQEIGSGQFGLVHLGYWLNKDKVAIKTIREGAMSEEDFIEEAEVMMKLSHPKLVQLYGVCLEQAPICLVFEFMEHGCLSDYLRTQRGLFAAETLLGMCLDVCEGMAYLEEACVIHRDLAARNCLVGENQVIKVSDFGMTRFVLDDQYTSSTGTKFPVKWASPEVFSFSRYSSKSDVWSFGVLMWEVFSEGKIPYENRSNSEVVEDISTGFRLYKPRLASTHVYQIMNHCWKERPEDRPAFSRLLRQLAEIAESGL
# Assay: ITK Degradation MSD (Meso Scale Discovery) Assay
# Format: cell-based
# Details: 4 or 6 hrs incubation; for DC50: best fit IC50 used as DC50
# Method: Compound dilution series (7-point, 5-fold dilutions in DMSO, rows B—H with replicate in Column 1/2, 3/4, 5/6, 7, and 8 at 2000× the final required concentrations were prepared in 96-well plate (Falcon, cat. no. 353077). Row A, Column 1-8 were control DMSO. The 2000× solutions ranged from 2 mM to 128 nM (final assay concentration range 1 μM to […]). The 2000×solutions were added to cells in 10 μL volume, for a final DMSO concentration of 0.5% and final assay compound concentration of 1×. For the cells, either human Jurkat (Clone E6-1 ATCC TIB-152) or Motl4 (ATCC CRL-1552), were plated at 1×10^6 cells/mL, 100 μL/well ([…]) in complete RPMI (10% FBS, 1% L-glutamine). The cells were incubated with compounds 26-29 for 4 or 6 hrs at 32° C./6% CO2.
# Following incubation, plates were centrifuged at 1200 rpm for 5 min. Supernatant was removed and 50 μL of cell lysis buffer (MSD Tris lysis buffer (R60TX), complete Mini EDTA-free protease inhibitor (Sigma 11836170001), Protease Inhibitor Cocktail (Sigma, P2714), Phosphatase Inhibitor Cocktail 2 and 3 (Sigma, P5726 and P0044), Benzonase (Sigma, E1014)) was added to each well. Plate was sealed and shook at 4° C. for 30 min. Plate was centrifuged and 45 μL was removed for plate assay.
# Assay plate preparation: Meso Scale Discovery (MSD) multi-array sm spot 96-well plates (Goat anti-Rabbit L^45-RA), were blocked with 3% BSA blocking buffer (3% Bovine Serum Albumin (Sigma A3059)+TBS 0.2% Tween-20) for one hour with gentle rocking at room temperature. Plate was then washed with 200 μL of 1×TBST (TBS 0.2% Tween-20) three times. After the last wash, all liquid was removed and 50 μL per well of capture antibody (abcam ITK Y402-ab32507) was added to plate at a 1:1000 dilution in blocking buffer (see above). Plate was sealed and rocked at room temperature for 2 hrs. Plate was then washed three times with 200 μL of 1×TBST. After the last wash, all liquid was removed and 45 μL of cell lysate (from above) was added to plate. Plate was sealed and rocked overnight at 4° C. The next day, cell lysates were removed, and assay plate was washed three times with 200 μL of 1×TBST. After the last wash, liquid was removed and detection antibody (CST ITK (2F12) #2380) was added at 50 μL per well at a dilution of 1:1000 in blocking buffer. Plate was sealed and rocked at room temperature for 2 hrs. Plate was washed three times with 200 μL of 1×TBST. After the last wash, all liquid was removed, MSD […] sulfo tag (R32AC-1) was diluted to 1:1000 in blocking buffer. 50 μL was added to each well on the plate. Plate was sealed and incubated at room temperature for one hour. Plate was washed three times with 200 μL of 1×TBST. After last wash, all liquid was removed and 150 μL of 1×MSD Read Buffer T (R92PC) was then added to each well for ECL read out.
# For reading ECL signal, plate was read on a Meso Scale Discovery (MSD) MESO Sector S 600 plate reader. Percent ITK was then calculated as described below.
# Percent ITK remaining per sample was calculated as follows: […]
# Using Graphpad Prism, % ITK remaining values were plotted as a function of compound concentration. To determine DC50 and Dmax values, resulting curves were fit to the Prism curve-fitting equation “log(inhibitor) vs response−Variable slope (four parameters)” (reported best fit value IC50 used as DC50).
SMILES,DC50 [nM],Dmax [%]
"CN[C@@H](C)C(=O)N[C@H](C(=O)N1CCC[C@H]1c1nc(C(=O)c2cccc(OCCCCCN3CC([C@@H](c4ccccc4)n4cc(NC(=O)c5n[nH]c6c5C[C@@H]5C(F)(F)[C@]5(C)C6)cn4)C3)c2)cs1)C1CCCCC1 [Compound 10, (4aS,5aR)—N-(1-((S)-(1-(5-(3-(2-((S)-1-((S)-2-cyclohexyl-2-((S)-2-(methylamino)propanamido)acetyl)pyrrolidin-2-yl)thiazole-4-carbonyl)phenoxy)pentyl)azetidin-3-yl)(phenyl)methyl)-1H-pyrazol-4-yl)-5,5-difluoro-5a-methyl-1,4,4a,5,5a,6-hexahydrocyclopropa[f]indazole-3-carboxamide]",22.2,
"Cc1ncsc1-c1ccc([C@H](C)NC(=O)[C@@H]2C[C@@H](O)CN2C(=O)[C@@H](NC(=O)CCOCCOCCC(=O)N2CC([C@@H](c3ccccc3)n3cc(NC(=O)c4n[nH]c5c4C[C@@H]4C(F)(F)[C@]4(C)C5)cn3)C2)C(C)(C)C)cc1 [Compound 30, (4aS,5aR)-5,5-difluoro-N-(1-((S)-(1-(3-(2-(3-(((S)-1-((2S,4R)-4-hydroxy-2-(((S)-1-(4-(4-methylthiazol-5-yl)phenyl)ethyl)carbamoyl)pyrrolidin-1-yl)-3,3-dimethyl-1-oxobutan-2-yl)amino)-3-oxopropoxy)ethoxy)propanoyl)azetidin-3-yl)(phenyl)methyl)-1H-pyrazol-4-yl)-5a-methyl-1,4,4a,5,5a,6-hexahydrocyclopropa[f]indazole-3-carboxamide]",38.8,86.3
"Cc1ncsc1-c1ccc(CNC(=O)[C@@H]2C[C@@H](O)CN2C(=O)[C@@H](NC(=O)CCOCCOCCOCCOCCN2CC([C@@H](c3ccccc3)n3cc(NC(=O)c4n[nH]c5c4C[C@@H]4C(F)(F)[C@]4(C)C5)cn3)C2)C(C)(C)C)cc1 [Compound 12, (4aS,5aR)-5,5-difluoro-N-(1-((S)-(1-((S)-17-((2S,4R)-4-hydroxy-2-((4-(4-methylthiazol-5-yl)benzyl)carbamoyl)pyrrolidine-1-carbonyl)-18,18-dimethyl-15-oxo-3,6,9,12-tetraoxa-16-azanonadecyl)azetidin-3-yl)(phenyl)methyl)-1H-pyrazol-4-yl)-5a-methyl-1,4,4a,5,5a,6-hexahydrocyclopropa[f]indazole-3-carboxamide]",114,
"Cc1ncsc1-c1ccc(CNC(=O)[C@@H]2C[C@@H](O)CN2C(=O)[C@@H](NC(=O)CCOCCOCCOCCOCCOCCOCCC(=O)N2CC([C@@H](c3ccccc3)n3cc(NC(=O)c4n[nH]c5c4C[C@@H]4C(F)(F)[C@]4(C)C5)cn3)C2)C(C)(C)C)cc1 [Compound 14, (4aS,5aR)-5,5-difluoro-N-(1-((S)-(1-((S)-24-((2S,4R)-4-hydroxy-2-((4-(4-methylthiazol-5-yl)benzyl)carbamoyl)pyrrolidine-1-carbonyl)-25,25-dimethyl-22-oxo-4,7,10,13,16,19-hexaoxa-23-azahexacosanoyl)azetidin-3-yl)(phenyl)methyl)-1H-pyrazol-4-yl)-5a-methyl-1,4,4a,5,5a,6-hexahydrocyclopropa[f]indazole-3-carboxamide]",134,
"Cc1ncsc1-c1ccc(CNC(=O)[C@@H]2C[C@@H](O)CN2C(=O)[C@@H](NC(=O)C2(F)CC2)C(C)(C)C)c(OCCOCCOCCOCCC(=O)N2CC([C@@H](c3ccccc3)n3cc(NC(=O)c4n[nH]c5c4C[C@@H]4C(F)(F)[C@]4(C)C5)cn3)C2)c1 [Compound 19, (4aS,5aR)-5,5-difluoro-N-(1-((S)-(1-(3-(2-(2-(2-(2-(((2S,4R)-1-((S)-2-(1-fluorocyclopropane-1-carboxamido)-3,3-dimethylbutanoyl)-4-hydroxypyrrolidine-2-carboxamido)methyl)-5-(4-methylthiazol-5-yl)phenoxy)ethoxy)ethoxy)ethoxy)propanoyl)azetidin-3-yl)(phenyl)methyl)-1H-pyrazol-4-yl)-5a-methyl-1,4,4a,5,5a,6-hexahydrocyclopropa[f]indazole-3-carboxamide]",2.6,95.9
"Cc1ncsc1-c1ccc(CNC(=O)[C@@H]2C[C@@H](O)CN2C(=O)[C@@H](NC(=O)C2(F)CC2)C(C)(C)C)c(OCCCCC(=O)N2CC([C@@H](c3ccccc3)n3cc(NC(=O)c4n[nH]c5c4C[C@@H]4C(F)(F)[C@]4(C)C5)cn3)C2)c1 [Compound 34, (4aS,5aR)-5,5-difluoro-N-(1-((S)-(1-(5-(2-(((2S,4R)-1-((S)-2-(1-fluorocyclopropane-1-carboxamido)-3,3-dimethylbutanoyl)-4-hydroxypyrrolidine-2-carboxamido)methyl)-5-(4-methylthiazol-5-yl)phenoxy)pentanoyl)azetidin-3-yl)(phenyl)methyl)-1H-pyrazol-4-yl)-5a-methyl-1,4,4a,5,5a,6-hexahydrocyclopropa[f]indazole-3-carboxamide]",10.8,94
"CN[C@@H](C)C(=O)N[C@H](C(=O)N1CCC[C@H]1c1nc(C(=O)c2cccc(OCCCN3CC([C@@H](c4ccccc4)n4cc(NC(=O)c5n[nH]c6c5C[C@@H]5C(F)(F)[C@]5(C)C6)cn4)C3)c2)cs1)C1CCCCC1 [Compound 8, (4aS,5aR)—N-(1-((S)-(1-(3-(3-(2-((S)-1-((S)-2-cyclohexyl-2-((S)-2-(methylamino)propanamido)acetyl)pyrrolidin-2-yl)thiazole-4-carbonyl)phenoxy)propyl)azetidin-3-yl)(phenyl)methyl)-1H-pyrazol-4-yl)-5,5-difluoro-5a-methyl-1,4,4a,5,5a,6-hexahydrocyclopropa[f]indazole-3-carboxamide]",49,
"Cc1ncsc1-c1ccc([C@H](C)NC(=O)[C@@H]2C[C@@H](O)CN2C(=O)[C@@H](NC(=O)CC2CCN(c3ccc(C(=O)N4CC([C@@H](c5ccccc5)n5cc(NC(=O)c6n[nH]c7c6C[C@@H]6C(F)(F)[C@]6(C)C7)cn5)C4)nc3)CC2)C(C)(C)C)cc1 [Compound 22, (4aS,5aR)-5,5-difluoro-N-(1-((S)-(1-(5-(4-(2-(((S)-1-((2S,4R)-4-hydroxy-2-(((S)-1-(4-(4-methylthiazol-5-yl)phenyl)ethyl)carbamoyl)pyrrolidin-1-yl)-3,3-dimethyl-1-oxobutan-2-yl)amino)-2-oxoethyl)piperidin-1-yl)picolinoyl)azetidin-3-yl)(phenyl)methyl)-1H-pyrazol-4-yl)-5a-methyl-1,4,4a,5,5a,6-hexahydrocyclopropa[f]indazole-3-carboxamide]",3.78,88
